Test results taken from article PMC3325286, “Structural and Functional Diversity of Acidic Scorpion Potassium Channel Toxins” (PLoS ONE, 2012).
Where two headings read alike, the source gives them in different places. Positions of bridges follow the written chain, without caps; N, C: chain ends. Residues, ends and D or L forms follow the SMILES beside them. No end group written: not given here.

How the values were obtained:
KCNQ1 channel [1] = target: T1, KCNQ1 channel (Homo sapiens, UniProt P15382+P51787)
T1 sequence (P51787 whole entry, looked up): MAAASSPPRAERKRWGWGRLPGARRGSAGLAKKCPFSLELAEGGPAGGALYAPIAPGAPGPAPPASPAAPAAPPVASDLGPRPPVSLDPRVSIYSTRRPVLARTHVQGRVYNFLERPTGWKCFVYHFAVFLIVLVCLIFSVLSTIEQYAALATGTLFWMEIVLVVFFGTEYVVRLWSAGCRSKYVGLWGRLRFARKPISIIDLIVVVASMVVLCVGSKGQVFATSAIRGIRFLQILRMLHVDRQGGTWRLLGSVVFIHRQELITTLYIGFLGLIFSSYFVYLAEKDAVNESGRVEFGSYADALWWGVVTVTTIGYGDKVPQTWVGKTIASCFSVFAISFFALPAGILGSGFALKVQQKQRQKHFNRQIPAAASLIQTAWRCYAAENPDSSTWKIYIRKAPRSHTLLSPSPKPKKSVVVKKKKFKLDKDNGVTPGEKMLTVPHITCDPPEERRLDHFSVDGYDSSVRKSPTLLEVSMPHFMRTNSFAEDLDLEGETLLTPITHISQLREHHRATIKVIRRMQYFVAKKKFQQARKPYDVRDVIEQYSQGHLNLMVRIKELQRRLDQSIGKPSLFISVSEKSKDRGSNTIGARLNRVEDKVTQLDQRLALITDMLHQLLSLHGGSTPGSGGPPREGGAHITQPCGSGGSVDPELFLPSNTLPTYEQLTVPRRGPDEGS

KCNQ1 channel [2] = target: T1, KCNQ1 channel; assay: cell-based; details: for inhibition at 10 µM: HEK293, read-out: Inhibition of KCNQ1 channel current; for inhibition at 1 µM: HEK293, read-out: Inhibition of KCNQ1 channel current, ImKTx104 and mutants
BKCa channel = assay: Patch-clamp inhibition of BKCa channel current in transfected HEK293 cells; format: cell-based; details: 1 µM concentration; n>3
TRPV1 channel = assay: Patch-clamp inhibition of TRPV1 channel current in transfected HEK293 cells; format: cell-based; details: 1 µM concentration; n>3
SKCa channel = assay: Patch-clamp inhibition of SKCa channel current in transfected HEK293 cells; format: cell-based; details: 1 µM concentration; n>3
Kv1.3 channel = assay: Patch-clamp inhibition of Kv1.3 channel current in transfected HEK293 cells; format: cell-based
Kv1.1 channel = assay: Patch-clamp inhibition of Kv1.1 channel current in transfected HEK293 cells; format: cell-based; details: 1 µM ImKTx104 (Fig. S2); n>3
Kv1.2 channel = assay: Patch-clamp inhibition of Kv1.2 channel current in transfected HEK293 cells; format: cell-based; details: 1 µM ImKTx104 (Fig. S2); n>3
Kv1.x channel = details: cited from earlier work

| Compound | Effect on KCNQ1 channel (in words) (KCNQ1 channel [1]; 10 µM concentration) | inhibition at 10 µM (KCNQ1 channel [2]) [%] | Effect on Kv1.3 channel (in words) (Kv1.3 channel) | inhibition at 1 µM (KCNQ1 channel [2]) [%] | further results |
| --- | --- | --- | --- | --- | --- |
| CSCC[C@@H]1NC(=O)[C@@H]2CCCN2C(=O)[C@@H]2CSSC[C@@H]3NC(=O)[C@H](C(C)C)NC(=O)CNC(=O)[C@H](CC(=O)O)NC(=O)[C@H](CC(=O)O)NC(=O)[C@H](CSSC[C@H](NC(=O)CNC(=O)[C@@H](N)C(C)C)C(=O)N[C@@H](CCC(=O)O)C(=O)N[C@@H](CCC(=O)O)C(=O)N2)NC(=O)[C@H]([C@@H](C)O)NC(=O)[C@@H]2CCCN2C(=O)[C@H](CCCCN)NC(=O)[C@H](C)NC(=O)[C@H](CC(N)=O)NC(=O)[C@H](CCCCN)NC(=O)CNC(=O)[C@H](CCCCN)NC(=O)[C@H](CSSC[C@@H](C(=O)N[C@@H](CC(N)=O)C(=O)N[C@H](C(=O)O)C(C)C)NC(=O)[C@H](CC(N)=O)NC3=O)NC(=O)[C@H](Cc2c[nH]cn2)NC1=O [BmP02, reference compound] (H-VGCEECPMHCKGKNAKPTCDDGVCNCNV-OH; disulfide 3-19, 6-24, 10-26) | only weak inhibitors | 23.3 |  |  |  |
| CC[C@H](C)[C@@H]1NC(=O)[C@@H](NC(=O)[C@H](C)NC(=O)[C@H](CC(N)=O)NC(=O)CN)CSSC[C@@H](C(=O)N[C@@H](CC(=O)O)C(=O)N[C@@H](CCCCN)C(=O)O)NC(=O)[C@H](C)NC(=O)[C@H](CCCCN)NC(=O)[C@H](CC(=O)O)NC(=O)[C@@H]2CSSC[C@H](NC(=O)[C@H](C(C)C)NC(=O)[C@H](CCC(=O)O)NC1=O)C(=O)N[C@@H](CC(C)C)C(=O)N[C@@H](CCC(N)=O)C(=O)N[C@@H](Cc1c[nH]cn1)C(=O)N[C@@H]([C@@H](C)O)C(=O)NCC(=O)N[C@@H](CC(N)=O)C(=O)N1CCC[C@H]1C(=O)N[C@@H](C)C(=O)N[C@@H](CCC(=O)O)C(=O)N2 [HeTx203] (H-GNACIEVCLQHTGNPAECDKACDK-OH; disulfide 4-22, 8-18) | only weakly inhibited | 17.8 |  |  |  |
| CC[C@H](C)[C@@H]1NC(=O)[C@@H](NC(=O)[C@H](C)NC(=O)[C@H](CC(N)=O)NC(=O)CN)CSSC[C@@H](C(=O)N[C@@H](CC(=O)O)C(=O)N[C@@H](CCCCN)C(=O)O)NC(=O)[C@@H]2CCCN2C(=O)[C@H](CCCCN)NC(=O)[C@H](CC(=O)O)NC(=O)[C@@H]2CSSC[C@H](NC(=O)[C@H](C(C)C)NC(=O)[C@H](CCC(=O)O)NC1=O)C(=O)N[C@@H](CC(C)C)C(=O)N[C@@H](CCC(N)=O)C(=O)N[C@@H](Cc1c[nH]cn1)C(=O)N[C@@H]([C@@H](C)O)C(=O)NCC(=O)N[C@@H](CC(N)=O)C(=O)N1CCC[C@H]1C(=O)N[C@@H](C)C(=O)N[C@@H](CCC(=O)O)C(=O)N2 [HeTx204] (H-GNACIEVCLQHTGNPAECDKPCDK-OH; disulfide 4-22, 8-18) | effectively blocked | 44.9 | effectively blocked |  | Effect on BKCa channel (in words) (BKCa channel): negligible effects; Effect on TRPV1 channel (in words) (TRPV1 channel): negligible effects; Effect on SKCa channel (in words) (SKCa channel): negligible effects; Washout of toxin from KCNQ1 channel (in words) (KCNQ1 channel [1]; 10 µM): could not be removed |
| CC[C@H](C)[C@@H]1NC(=O)[C@H]([C@@H](C)O)NC(=O)[C@H](C)NC(=O)[C@H](Cc2ccc(O)cc2)NC(=O)[C@@H]2CSSC[C@@H](C(=O)N[C@@H](CCSC)C(=O)O)NC(=O)[C@H](CCCCN)NC(=O)[C@@H]3CSSC[C@H](NC(=O)[C@H](CC(=O)O)NC(=O)[C@H](CCC(=O)O)NC(=O)[C@H](Cc4c[nH]cn4)NC(=O)[C@H]([C@@H](C)O)NC(=O)[C@H](C(C)C)NC(=O)[C@@H](NC(=O)[C@H](C)N)CSSC[C@H](NC(=O)[C@H]([C@@H](C)O)NC(=O)CNC1=O)C(=O)N[C@@H](C(C)C)C(=O)N[C@@H](CC(=O)O)C(=O)NCC(=O)N[C@@H](CCCCN)C(=O)N3)C(=O)N[C@@H]([C@@H](C)O)C(=O)N[C@@H](CC(C)C)C(=O)N[C@@H](CC(C)C)C(=O)N2 [ImKTX104-D14A] (H-ACVTHEDCTLLCYATIGTCVDGKCKCM-OH; disulfide 2-19, 8-24, 12-26) |  |  |  | 25.6 |  |
| CC[C@H](C)[C@@H]1NC(=O)[C@H]([C@@H](C)O)NC(=O)[C@H](CC(=O)O)NC(=O)[C@H](Cc2ccc(O)cc2)NC(=O)[C@@H]2CSSC[C@@H](C(=O)N[C@@H](CCSC)C(=O)O)NC(=O)[C@H](CCCCN)NC(=O)[C@@H]3CSSC[C@H](NC(=O)[C@H](CC(=O)O)NC(=O)[C@H](CCC(=O)O)NC(=O)[C@H](Cc4c[nH]cn4)NC(=O)[C@H]([C@@H](C)O)NC(=O)[C@H](C(C)C)NC(=O)[C@@H](NC(=O)[C@H](C)N)CSSC[C@H](NC(=O)[C@H]([C@@H](C)O)NC(=O)CNC1=O)C(=O)N[C@@H](C(C)C)C(=O)N[C@@H](CC(=O)O)C(=O)NCC(=O)N[C@@H](C)C(=O)N3)C(=O)N[C@@H]([C@@H](C)O)C(=O)N[C@@H](CC(C)C)C(=O)N[C@@H](CC(C)C)C(=O)N2 [ImKTX104-K23A] (H-ACVTHEDCTLLCYDTIGTCVDGACKCM-OH; disulfide 2-19, 8-24, 12-26) |  |  |  | 15.5 |  |
| CC[C@H](C)[C@@H]1NC(=O)[C@H]([C@@H](C)O)NC(=O)[C@H](CC(=O)O)NC(=O)[C@H](Cc2ccc(O)cc2)NC(=O)[C@@H]2CSSC[C@@H](C(=O)N[C@@H](CCSC)C(=O)O)NC(=O)[C@H](C)NC(=O)[C@@H]3CSSC[C@H](NC(=O)[C@H](CC(=O)O)NC(=O)[C@H](CCC(=O)O)NC(=O)[C@H](Cc4c[nH]cn4)NC(=O)[C@H]([C@@H](C)O)NC(=O)[C@H](C(C)C)NC(=O)[C@@H](NC(=O)[C@H](C)N)CSSC[C@H](NC(=O)[C@H]([C@@H](C)O)NC(=O)CNC1=O)C(=O)N[C@@H](C(C)C)C(=O)N[C@@H](CC(=O)O)C(=O)NCC(=O)N[C@@H](CCCCN)C(=O)N3)C(=O)N[C@@H]([C@@H](C)O)C(=O)N[C@@H](CC(C)C)C(=O)N[C@@H](CC(C)C)C(=O)N2 [ImKTX104-K25A] (H-ACVTHEDCTLLCYDTIGTCVDGKCACM-OH; disulfide 2-19, 8-24, 12-26) |  |  |  | 21.4 |  |
| CC[C@H](C)[C@@H]1NC(=O)[C@H]([C@@H](C)O)NC(=O)[C@H](CC(=O)O)NC(=O)[C@H](Cc2ccc(O)cc2)NC(=O)[C@@H]2CSSC[C@@H](C(=O)N[C@@H](CCSC)C(=O)O)NC(=O)[C@H](CCCCN)NC(=O)[C@@H]3CSSC[C@H](NC(=O)[C@H](CC(=O)O)NC(=O)[C@H](CCC(=O)O)NC(=O)[C@H](Cc4c[nH]cn4)NC(=O)[C@H]([C@@H](C)O)NC(=O)[C@H](C(C)C)NC(=O)[C@@H](NC(=O)[C@H](C)N)CSSC[C@H](NC(=O)[C@H]([C@@H](C)O)NC(=O)CNC1=O)C(=O)N[C@@H](C(C)C)C(=O)N[C@@H](CC(=O)O)C(=O)NCC(=O)N[C@@H](CCCCN)C(=O)N3)C(=O)N[C@@H]([C@@H](C)O)C(=O)N[C@@H](CC(C)C)C(=O)N[C@@H](CC(C)C)C(=O)N2 [ImKTx104] (H-ACVTHEDCTLLCYDTIGTCVDGKCKCM-OH; disulfide 2-19, 8-24, 12-26) | effectively blocked | 41.7 | minor effect | 27.5 | Effect on BKCa channel (in words) (BKCa channel): negligible effects; Effect on Kv1.1 channel (in words) (Kv1.1 channel): no effect; Effect on TRPV1 channel (in words) (TRPV1 channel): negligible effects; Effect on SKCa channel (in words) (SKCa channel): negligible effects; Effect on Kv1.2 channel (in words) (Kv1.2 channel): no effect; τoff (time constant of washing off process), KCNQ1 channel current (KCNQ1 channel [1]; measured at 10 µM): 11.73 s; τon (time constant of binding process), KCNQ1 channel current (KCNQ1 channel [1]; measured at 10 µM): 81.32 s |
| CC[C@H](C)[C@@H]1NC(=O)[C@H](C)NC(=O)[C@H](CCC(=O)O)NC(=O)[C@H](CO)NC(=O)[C@H]([C@@H](C)CC)NC(=O)[C@@H]2CCCN2C(=O)[C@@H](NC(=O)[C@H](CC(=O)O)NC(=O)CNC(=O)[C@@H](N)CCC(=O)O)CSSC[C@@H]2NC(=O)[C@H](C(C)C)NC(=O)[C@H](CCC(=O)O)NC(=O)[C@H](C(C)C)NC(=O)[C@H](CCCCN)NC(=O)[C@H](CCC(=O)O)NC(=O)[C@H](CCCCN)NC(=O)[C@@H]3CSSC[C@@H](C(=O)N[C@@H](CO)C(=O)NCC(=O)O)NC(=O)[C@H](CCCCN)NC(=O)[C@H](CSSC[C@H](NC(=O)[C@H](CCCCN)NC1=O)C(=O)N[C@@H](C(C)C)C(=O)N[C@@H](CCC(=O)O)C(=O)N[C@@H](CCCCN)C(=O)N3)NC(=O)[C@H](C(C)C)NC(=O)CNC(=O)[C@@H]1CCCN1C(=O)[C@H](CCC(=O)O)NC2=O [LmKTx2] (H-EGDCPISEAIKCVEKCKEKVEVCEPGVCKCSG-OH; disulfide 4-23, 12-28, 16-30) | only weakly inhibited | 27.7 | minor effect |  |  |
| CC[C@H](C)[C@@H]1NC(=O)[C@H](C(C)C)NC(=O)[C@@H]2CSSC[C@@H]3NC(=O)[C@H](CCCCN)NC(=O)[C@H](CCC(N)=O)NC(=O)[C@@H]4CCCN4C(=O)CNC(=O)[C@H](CC(=O)O)NC(=O)[C@H](CSSC[C@H](NC(=O)[C@H](CO)NC(=O)[C@H](CCC(=O)O)NC(=O)[C@H](CCCCN)NC(=O)[C@@H]4CCCN4C(=O)[C@H](CCC(=O)O)NC(=O)[C@H](CCC(=O)O)NC(=O)[C@@H](N)CC(=O)O)C(=O)N[C@@H](CO)C(=O)N[C@@H](CC(=O)O)C(=O)N[C@@H](CCC(=O)O)C(=O)N[C@@H](CCSC)C(=O)N2)NC(=O)[C@H](C(C)C)NC(=O)CNC(=O)[C@H]([C@@H](C)O)NC(=O)[C@H](CO)NC(=O)[C@H](Cc2ccc(O)cc2)NC(=O)[C@H](CCC(=O)O)NC(=O)[C@H](CCC(=O)O)NC(=O)CNC(=O)[C@H](CCCCN)NC(=O)[C@H](CSSC[C@@H](C(=O)N[C@@H](CO)C(=O)N[C@@H](CC(=O)O)C(=O)O)NC(=O)[C@H](CCCCN)NC3=O)NC(=O)[C@H](Cc2ccc(O)cc2)NC1=O [PbTx1, reference compound] (H-DEEPKESCSDEMCVIYCKGEEYSTGVCDGPQKCKCSD-OH; disulfide 8-27, 13-33, 17-35) |  | 21.4 |  |  | Block of Kv1.x channel (in words) (Kv1.x channel): low activity (micromolar range); Effect on KCNQ1 channel (in words) (KCNQ1 channel [1]): only weak inhibitors |
| EDKLKCTKTDDCAKYCSQFTDVHPACLGGYCECLRWEGGISS (disulfide 6-26, 12-31, 16-33) [StKTx23] | did not inhibit | 4.21 | effectively blocked |  |  |
